Patent US11957766B2, “HNQO1-activatable fluorescent probe for imaging cancer cells in-vitro and in-vivo” (Texas Tech University System, priority 2019, dated 2024)

Legend:
[1] = test system: A549 and NCI-H460 cancer cells, IMR 90 and HUVECs normal cells; assay: Cytotoxicity of NIR-ASM, resazurin reduction assay; format: cell-based, human; conditions: up to 100 μM, 72 h
Method: Assessment of NIR-ASM biocompatibility. Inspired by the excellent photophysical properties of NIR-ASM in monitoring the NQO1 activity in vitro, the inventors determined the biocompatibility of NIR-ASM both in vitro and in vivo before using for endogenous applications. […] Further, to evaluate NIR-ASM tolerability and toxicity in vivo, CD1 mice were grouped for the administration of vehicle (PEG:H2O:EtOH) alone or 5 mg/kg of NIR-ASM five times a week for five weeks. The average mouse weights were monitored as a surrogate marker to the toxicity.
Cell viability assays. NIR-ASM was evaluated for in vitro cytotoxicity in human cancer (A549 and H460) and normal (IMR90 and HUVECs) cell lines following a protocol of 72 h continuous drug exposure using resazurin reduction assay. The cell lines were grown in 96-well microtiter plates at a density of 5000 cells per well. The plates were incubated for 24 h prior to addition of NIR-ASM. Ten concentrations of NIR-ASM were evaluated in quadruplicate sets. Plates were incubated for a further 72 h and replaced with 20 μL resazurin 0.01% (w/v) containing the medium. After 2 h, the fluorescence was measured using a Tecan Reader (Infinite m200 Pro) at a 544 nm excitation and 590 nm emission.

[2] = test system: IMR90 and HUVECs; assay: Flow cytometry of NIR-ASM in NQO1-negative normal cell lines; format: cell-based, human
Method: Detection of NQO1 in live cells. Inspired by the excellent biocompatibility, the inventors investigated its performance in both NQO1 expressing cancer cells (A549, H460) and NQO1 non-expressing normal cells (IMR90, HUVEC). All cells were incubated with NIR-ASM (10 μM) for 60 min, washed with PBS and were imaged under a confocal microscope after counterstaining the nuclei with Hoechst 33342 (FIG. 12A). […] The higher expression of NQO1 protein in A549 and H460 cells and its absence in normal cells, IMR90 and HUVEC as found with western blot analysis correlated with the probe reactivity in cells (FIG. 12B). […] Cell sorting using flow cytometry is a well-established technology in clinical diagnostics and biomedical research. To assess the applicability of the NIR-ASM to rapidly detect and quantify in both cancer and normal cells based on NQO1 expression, the probe was incubated with cell suspensions for 60 min, and about 1×10^4 cells were analyzed on a flow cytometer.
Flow cytometry analysis. The endogenous NQO1 activity of cancer cells and normal cells was determined by flow cytometry after NIR-ASM exposure. Cells were incubated with 10 μM of NIR-ASM for 60 min, harvested by trypsinization and washed with PBS. For inhibitor study, cells were pretreated with NQO1 inhibitor ES936 (100 nM) for 6 h before adding the NIR-ASM. About 1×10^4 cells were analyzed by flow cytometry (λex=488 nm).

[3] = test system: subcutaneous U87MG tumor; assay: Fluorescence imaging of hNQO1 in subcutaneous U87MG tumor-bearing mice with NQ-DCP; format: in vivo
Method: Fluorescence Imaging of hNQO1 in U87MG Tumor-Bearing Mice. With the prominent performance of NQ-DCP in cellular fluorescence imaging, the inventors further applied this probe to evaluate its capacity for the noninvasive fluorescence imaging of hNQO1 in vivo. NQ-DCP (10 mg/kg, 50 μL) was intravenously injected into sub-cutaneous U87MG tumor-bearing mice. The whole-body fluorescence was imaged with a Caliper IVIS Spectral imaging system. […] The host organs and tumor from the mice administered with NQ-DCP were harvested and their fluorescence was analyzed ex vivo using the IVIS to confirm the tumor-selective targeting ability of NQ-DCP. […] The application of NQ-DCP to image hNQO1 activity was also investigated in intracranial U87MG tumor-bearing mice. Tumor xenografts were established by implanting exponentially growing U87MG-Luc cells by stereotaxic injection into mice brain and the tumor growth was assessed by quantitative bioluminescence using IVIS (in vivo imaging system) (FIG. 7C). […] Therefore, the inventors performed intracranial injection of NQ-DCP (100 μM, 5 μL) to both healthy and tumor-bearing mice, the brain was isolated after 30 min and fluorescence images acquired.
Four-week-old male and female NCG and athymic nude mice were housed in a micro ventilated caging system in a sterile environment and fed ad-libitum with standard irradiated research rodent diet and water. […]

| Compound | cytotoxicity [1] | flow cytometry fluorescence signal, negative normal cells ([2]; 60 min, about 1×10^4 cells) | intracellular stability ([2]; sustained low fluorescence in normal cells) | time of maximum fluorescence in the tumor ([3]; 10 mg/kg, 50 μL, intravenous) | ex vivo fluorescence in tumor and organs ([3]; organs harvested after intravenous NQ-DCP, 30 min) |
| --- | --- | --- | --- | --- | --- |
| CC1=C(C)C(=O)C(C(C)(C)CC(=O)Nc2ccc(/C=C/C3=CC(=C(C#N)C#N)CC(C)(C)C3)cc2)=C(C)C1=O [NIR-ASM, (E)-N-(4-(2-(3-(dicyanomethylene)-5,5-dimethylcyclohex-1-en-1-yl)vinyl)phenyl)-3-methyl-3-(2,4,5-trimethyl-3,6-dioxocyclohexa-1,4-dien-1-yl)butanamide] | not toxic | minimal fluorescence | intracellular stability of NIR-ASM without any non-specific activation |  |  |
| CC1=C(C)C(=O)C(C(C)(C)CC(=O)Oc2ccc(/C=C/C3=CC(=C(C#N)C#N)CC(C)(C)C3)cc2)=C(C)C1=O [NQ-DCP] |  |  |  | 30 min | selectively observed in the tumor and not in any other major organs |
